Laboratory results from US5236955A, “Anti-fungal agent” (Washington University, priority 1992, dated 1993).

Experiments:
C. neoformans = assay: Growth of C. neoformans cultures (absorbance at 600 nm); assay type: cell-based, Cryptococcus neoformans; conditions: single 300 μM dose, exponential phase, 30° C., SAB, up to 24 h
Experimental: Panel A, survey of the effects of several oxatetradecanoic acids on the growth of C. neoformans. A culture of C. neoformans was grown at 30° C. in SAB media to midlog phase (A600 ~0.5). A single dose of fatty acid was then added to subcultures (final concentration=300 μM). EtOH(0.1%) was used as a negative control. Amphotericin B (AmB) was added (final concentraton=55 μM) as a positive control. Aliquots were withdrawn from the subcultures 0, 0.5, 2, 4, 7, 21, and 24 h after these additions and then absorbance at 600 nm was measured. All assays were done in duplicate or triplicate. A representative test is shown. Panel B, survey of the effects of oxatetradecanoic acids, dioxatetradecanoic acids and oxatridecanoic acids on the viability of C. neoformans. Fatty acid analog was added to the cultures as in Panel A. Aliquots were withdrawn 0.5, 2, 4, 7 or 8, and 24 h later and plated on SAB-agar at various dilutions to determine the number of viable organisms/ml culture. All assays were done in duplicate. Data from a representative test are expressed as the ratio of viable cells in treated cultures relative to a control culture that received 0.1% EtOH. A positive control culture received a single dose of amphotericin B (55 μM); Panel C, dose-dependent reduction in the viability of C. neoformans after addition of 4-oxatetradecanoic acid (O4) to cultures during log-phase growth at 30° C. in SAB. A single dose of the analog was given at T=0 h in the amount indicated and aliquots of the culture were withdrawn at various times to determine the number of viable cells. All assays were done in triplicate. A representative test is shown.
Saccharomyces cerevisiae strain YM2061 (MATa ura3-52 his3Δ200 ade2-101 lys2-801 met LEU2::pRY181 can1; Flick and Johnston, Mol. Cell. Biol. 10, 4757-4769 (1990), Candida albicans strain B311 (obtained from the American Type Tissue Culture, Rockville, Md.), or Cryptococcus neoformans strain L210425 (a clinical isolate that is part of the permanent culture collection of the Mycology Laboratory, Barnes Hospital, St. Louis, Mo.) were grown overnight at 30 C. The S. cerevisiae strain was incubated in YPD medium (1% bacto-yeast extract, Gibco, Long Island, N.Y.), 2% bacto-peptone (Gibco), 2% dextrose). The C. albicans and C. neoformans strains were grown in Sabouraud's media (SAB; 2% (w/v) dextrose, 1% bacto-peptone). The following morning the cultures were diluted into fresh medium to the desired density at 600 nm (early log phase), and subsequently incubated in a rotary shaker at 30° C. until an A600 =0.5 (mid log phase) was achieved. The culture was then divided into 10 ml aliquots. A single 10 μl aliquot of a stock solution of fatty acid analog (prepared in various concentrations using absolute ethanol) was added to the culture so that the final concentration of the compound was 100-500 μM (T=0). Ten microliters of ethanol alone was added to one 10 ml culture which served as the negative control. […] Cell viability was determined at each of these time points by (i) serially diluting the aliquot in 0.15M NaCl and counting cell number in a hemocytometer and (ii) plating 2-3 of the dilutions in triplicate onto plates of SAB/agar (C. albicans and C. neoformans) or YPD/agar (S. cerevisiae). […] The data were expressed as the ratio of viable cells/ml in the fatty acid analog treated subculture to the number of viable cells/ml in the negative (ethanol) control culture. […]

[1] = test system: C. albicans N-myristoylproteins; assay: Metabolic labeling of cellular N-myristoylproteins with tritiated fatty acids; assay type: cell-based; conditions: tritiated analog, 1 h, 30° C.
Experimental: (§1) Cells were labeled for 1 h with fatty acids of equal specific activity. Total cellular proteins were reduced, denatured and subjected to SDS-PAGE. Gels were treated overnight with 1 N hydrocylamine (pH 10) at room temperature followed by EN^3 HANCE. Fluorography was performed at -80° C. The exposure time for all gels was identical (2 weeks) as was the total amount of cellular protein added to each lane (100 μg).
(§2) Analysis of the incorporation of exogenous fatty acids into cellular proteins--Cultures of S. cerevisiae YM2061, C. albicans B311, and C. neoformans L210425 were grown overnight at 30° C. in YPD or SAB broth. In the morning, C. albicans and C. neoformans were diluted to an A600 =0.6. All cultures were subsequently shaken at 30° C. until they achieved an A600 =1.2. A 5 ml aliquot of each culture was then incubated at 30° C. with 100 μCi/ml of either [9,10(n)^3 H]myristate (NEN Research Products, Dupont, Boston, Mass.); [6,7(n)^3 H]4-oxatetradecanoate; [9,10(n)^3 H]6-oxatetradecanoate;[9,10(n)^3 H]11-oxatetradecanoate; or [10,11(n)^3 H]13-oxatetradecanoate (the final specific activity of all tritiated fatty acids=30 Ci/mmol, their final concentration=3.3 μM). The cultures were then chilled on ice for 5 min and the cells harvested by centrifugation at 4000×g for 5 min. The pellet was washed by gentle vortexing in 1 ml of phosphate buffered saline (PBS, maintained at 4° C.). The yeast cells were then pelleted by centrifugation (as above) and broken open by vortexing with 500 μm glass beads in a 200 μl solution containing 240 mM Tris-HCl, pH 6.8, 2% SDS, 0.4% β-mercaptoethanol, 0.002% bromophenol blue, and 10% glycerol. The solution was then boiled for 5 min and cellular debris was removed by centrifugation at 12,000×g for 10 min. One hundred μg [Lowry et al., J. Biol. Chem. 193, 265-275 (1951)] of lysate protein from each sample was subjected to denaturation, reduction and electrophoresis through 12% polyacrylamide gels containing 0.1% SDS [Laemmli, Nature 227, 680-685 (1970)]. Duplicate gels were incubated overnight with 1M Tris, pH 7.4, or 1N hydroxylamine, pH 10. Fluorography was performed by treating gels with EN^3 HANCE (NEN Research Products, Dupont) and, following drying, exposing them to Kodak XAR film at -80° C.

[2] = test system: C. neoformans N-myristoylproteins; assay: as above; assay type: cell-based; conditions: tritiated analog, 1 h, 30° C.
Experimental: as §1, §2

[3] = test system: S. cerevisiae N-myristoylproteins; assay: as above; assay type: cell-based; conditions: tritiated analog, 1 h, 30° C.
Experimental: as §1, §2

## CCCCCCCCCCOCCC(=O)O [O4, 4-oxatetradecanoic acid]
C. neoformans
  effect on growth of C. neoformans, as determined by optical density: growth arrest equivalent to that observed with 55 μM amphotericin B
[1]
  labeling of C. albicans N-myristoylproteins versus [3H]myristate: more intense labeling
[2]
  labeling of C. neoformans N-myristoylproteins versus [3H]myristate: comparable labeling
[3]
  incorporation into the 55 kDa Gpal polypeptide: is incorporated
  labeling of S. cerevisiae N-myristoylproteins versus [3H]myristate: more intense labeling
  labeling of the 20 kDa Arfs: comparable intensity
